Structures can show the parent of a compound that is named as a salt.
Target: T1, HCV polymerase (Hepatitis C virus genotype 1b, UniProt P26663)
T1 construct: a region encoding NS5B (591 amino acids; J Virol 1991 Mar, 65(3), 1105-13) was amplified by PCR; 6 His (N); made in house; host or cells: Escherichia coli
Experiment: biochemical
Conditions: read-out: HCV polymerase inhibitory activity IC50

T1 sequence (P26663 2420-3010): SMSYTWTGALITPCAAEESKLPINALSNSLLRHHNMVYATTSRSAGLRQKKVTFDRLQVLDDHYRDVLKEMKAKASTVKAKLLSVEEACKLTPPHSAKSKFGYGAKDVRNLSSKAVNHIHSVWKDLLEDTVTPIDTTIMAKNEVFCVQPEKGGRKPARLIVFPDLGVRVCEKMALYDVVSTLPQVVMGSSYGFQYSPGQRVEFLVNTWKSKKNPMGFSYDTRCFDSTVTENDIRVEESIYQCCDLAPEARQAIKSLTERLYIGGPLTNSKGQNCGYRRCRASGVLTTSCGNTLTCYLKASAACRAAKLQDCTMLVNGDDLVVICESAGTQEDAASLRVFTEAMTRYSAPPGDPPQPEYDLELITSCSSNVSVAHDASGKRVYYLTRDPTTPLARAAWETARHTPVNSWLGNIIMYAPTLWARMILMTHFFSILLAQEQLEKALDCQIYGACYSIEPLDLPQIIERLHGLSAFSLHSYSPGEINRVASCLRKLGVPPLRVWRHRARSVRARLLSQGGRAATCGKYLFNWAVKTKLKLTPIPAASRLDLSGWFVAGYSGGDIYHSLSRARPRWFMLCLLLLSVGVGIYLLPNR

Compound | IC50 [nM]
O=C(O)c1ccc2c(c1)nc(-c1ccc(OCc3cc(C(=O)Nc4ccccc4)ccc3-c3ccc(Cl)cc3)cc1)n2C1CCCCC1 [Example 332, 2-{4-[2-(4-chlorophenyl)-5-(phenylcarbamoyl)benzyloxy]phenyl}-1-cyclohexylbenzimidazole-5-carboxylic acid hydrochloride] | 23
COC1CCN(C(=O)c2ccc(-c3ccc(Cl)cc3)c(COc3ccc(-c4nc5cc(C(=O)O)ccc5n4C4CCCCC4)cc3)c2)CC1 [Example 333, 2-{4-[2-(4-chlorophenyl)-5-(4-methoxypiperidinocarbonyl)-benzyloxy]phenyl}-1-cyclohexylbenzimidazole-5-carboxylic acid hydrochloride] | 16
O=C(O)c1ccc2c(c1)nc(-c1ccc(OCc3cc(OCCCO)ccc3-c3ccc(Cl)cc3)cc1)n2C1CCCCC1 [Example 334, 2-{4-[2-(4-chlorophenyl)-5-(3-hydroxypropyloxy)benzyloxy]phenyl}-1-cyclohexylbenzimidazole-5-carboxylic acid] | 16
O=C(O)c1ccc2c(c1)nc(-c1ccc(OCc3cc(OCCO)ccc3-c3ccc(Cl)cc3)cc1)n2C1CCCCC1 [Example 335, 2-{4-[2-(4-chlorophenyl)-5-(2-hydroxyethoxy)benzyloxy]phenyl}-1-cyclohexylbenzimidazole-5-carboxylic acid hydrochloride] | 13
CC1CCN(C(=O)c2ccc(-c3ccc(Cl)cc3)c(COc3ccc(-c4nc5cc(C(=O)O)ccc5n4C4CCCCC4)cc3)c2)CC1 [Example 341, 2-{4-[2-(4-chlorophenyl)-5-(4-methylpiperidin-1-ylcarbonyl)benzyloxy]phenyl}-1-cyclohexylbenzimidazole-5-carboxylic acid hydrochloride] | 25
CC(=O)c1ccc(-c2ccc(Cl)cc2)c(COc2ccc(-c3nc4cc(C(=O)O)ccc4n3C3CCCCC3)cc2)c1 [Example 342, 2-{4-[5-acetyl-2-(4-chlorophenyl)benzyloxy]phenyl}-1-cyclohexylbenzimidazole-5-carboxylic acid hydrochloride] | 15
O=C(O)c1ccc2c(c1)nc(-c1ccc(OCc3cc(OCC(=O)N4CCC(O)CC4)ccc3-c3ccc(Cl)cc3)cc1)n2C1CCCCC1 [Example 343] | 17
COCCOc1ccc(-c2ccc(Cl)cc2)c(COc2ccc(-c3nc4cc(C(=O)O)ccc4n3C3CCCCC3)cc2)c1 [Example 344, 2-{4-[2-(4-chlorophenyl)-5-(2-methoxyethoxy)benzyloxy]phenyl}-1-cyclohexylbenzimidazole-5-carboxylic acid hydrochloride] | 16
COCCOCCOc1ccc(-c2ccc(Cl)cc2)c(COc2ccc(-c3nc4cc(C(=O)O)ccc4n3C3CCCCC3)cc2)c1 [Example 345, 2-{4-[2-(4-chlorophenyl)-5-{2-(2-methoxyethoxy)ethoxy}-benzyloxy]phenyl}-1-cyclohexylbenzimidazole-5-carboxylic acid hydrochloride] | 12
CC(C)CC(=O)c1ccc(-c2ccc(Cl)cc2)c(COc2ccc(-c3nc4cc(C(=O)O)ccc4n3C3CCCCC3)cc2)c1 [Example 346, 2-{4-[2-(4-chlorophenyl)-5-(isobutylcarbonyl)benzyloxy]phenyl}-1-cyclohexylbenzimidazole-5-carboxylic acid] | 25
Cc1nc(-c2ccc(-c3ccc(Cl)cc3)c(COc3ccc(-c4nc5cc(C(=O)O)ccc5n4C4CCCCC4)cc3)c2)cs1 [Example 347, 2-{4-[2-(4-chlorophenyl)-5-(2-methylthiazol-4-yl)benzyloxy]-phenyl}-1-cyclohexylbenzimidazole-5-carboxylic acid] | 22
Cc1noc(-c2ccc(-c3ccc(Cl)cc3)c(COc3ccc(-c4nc5cc(C(=O)O)ccc5n4C4CCCCC4)cc3)c2)n1 [Example 349, 2-{4-[2-(4-chlorophenyl)-5-(3-methyl-1,2,4-oxadiazol-5-yl)benzyloxy]phenyl}-1-cyclohexylbenzimidazole-5-carboxylic acid hydrochloride] | 21
CC(C)NC(=O)c1ccc(COc2ccc(-c3nc4cc(C(=O)O)ccc4n3C3CCCCC3)cc2)c(-c2ccc(Cl)cc2)c1 [Example 350, 2-{4-[2-(4-chlorophenyl)-4-(isopropylcarbamoyl)benzyloxy]phenyl}-1-cyclohexylbenzimidazole-5-carboxylic acid hydrochloride] | 20
O=C(O)c1ccc2c(c1)nc(-c1ccc(OCc3ccc(C(=O)N4CCCCC4)cc3-c3ccc(Cl)cc3)cc1)n2C1CCCCC1 [Example 351, 2-{4-[2-(4-chlorophenyl)-4-(piperidinocarbonyl)benzyloxy]phenyl}-1-cyclohexylbenzimidazole-5-carboxylic acid hydrochloride] | 19
CC(C)(CO)NC(=O)c1ccc(-c2ccc(Cl)cc2)c(COc2ccc(-c3nc4cc(C(=O)O)ccc4n3C3CCCCC3)cc2)c1 [Example 352, 2-{4-[2-(4-chlorophenyl)-5-{(1-hydroxy-2-methylpropan-2-yl)carbamoyl}benzyloxy]phenyl}-1-cyclohexylbenzimidazole-5-carboxylic acid hydrochloride] | 13
CC1(C)COC(c2ccc(-c3ccc(Cl)cc3)c(COc3ccc(-c4nc5cc(C(=O)O)ccc5n4C4CCCCC4)cc3)c2)=N1 [Example 353, 2-{4-[2-(4-chlorophenyl)-5-(4,4-dimethyl-2-oxazolin-2-yl)benzyloxy]phenyl}-1-cyclohexylbenzimidazole-5-carboxylic acid dihydrochloride] | 23
O=C(O)c1ccc2c(c1)nc(-c1ccc(OCc3ccc(C(=O)N4CCC(O)CC4)cc3-c3ccc(Cl)cc3)cc1)n2C1CCCCC1 [Example 354, 2-{4-[2-(4-chlorophenyl)-4-(4-hydroxypiperidin-1-ylcarbonyl)benzyloxy]phenyl}-1-cyclohexylbenzimidazole-5-carboxylic acid hydrochloride] | 13
O=C(O)c1ccc2c(c1)nc(-c1ccc(OCc3ccc(C(=O)NCCO)cc3-c3ccc(Cl)cc3)cc1)n2C1CCCCC1 [Example 355, 2-{4-[2-(4-chlorophenyl)-4-{(2-hydroxyethyl)carbamoyl}-benzyloxy]phenyl}-1-cyclohexylbenzimidazole-5-carboxylic acid hydrochloride] | 15
O=C(O)c1ccc2c(c1)nc(-c1ccc(OCc3ccc(C(=O)NCc4ccncc4)cc3-c3ccc(Cl)cc3)cc1)n2C1CCCCC1 [Example 356, 2-{4-[2-(4-chlorophenyl)-4-{(4-pyridylmethyl)carbamoyl}-benzyloxy]phenyl}-1-cyclohexylbenzimidazole-5-carboxylic acid] | 16
CN(C)C(=O)c1ccc(COc2ccc(-c3nc4cc(C(=O)O)ccc4n3C3CCCCC3)cc2)c(-c2ccc(Cl)cc2)c1 [Example 357, 2-{4-[2-(4-chlorophenyl)-4-(dimethylcarbamoyl)benzyloxy]phenyl}-1-cyclohexylbenzimidazole-5-carboxylic acid hydrochloride] | 19
Nc1nc(-c2ccc(-c3ccc(Cl)cc3)c(COc3ccc(-c4nc5cc(C(=O)O)ccc5n4C4CCCCC4)cc3)c2)cs1 [Example 358, 2-{4-[5-(2-aminothiazol-4-yl)-2-(4-chlorophenyl)benzyloxy]-phenyl}-1-cyclohexylbenzimidazole-5-carboxylic acid dihydrochloride] | 17
O=C(O)c1ccc2c(c1)nc(-c1ccc(OCc3cc(S(=O)(=O)N4CCC(O)CC4)ccc3-c3ccc(Cl)cc3)cc1)n2C1CCCCC1 [Example 359, 2-{4-[2-(4-chlorophenyl)-5-(4-hydroxypiperidin-1-ylsulfonyl)benzyloxy]phenyl}-1-cyclohexylbenzimidazole-5-carboxylic acid hydrochloride] | 15
CN(C)C(=O)c1ccc(-c2ccc(F)cc2)c(COc2ccc(-c3nc4cc(C(=O)O)ccc4n3C3CCCCC3)cc2)c1 [Example 360, 2-{4-[5-(dimethylcarbamoyl)-2-(4-fluorophenyl)benzyloxy]phenyl}-1-cyclohexylbenzimidazole-5-carboxylic acid hydrochloride] | 14
CN(C)C(=O)c1ccc(-c2cccc(F)c2)c(COc2ccc(-c3nc4cc(C(=O)O)ccc4n3C3CCCCC3)cc2)c1 [Example 361, 2-{4-[5-(dimethylcarbamoyl)-2-(3-fluorophenyl)benzyloxy]phenyl}-1-cyclohexylbenzimidazole-5-carboxylic acid hydrochloride] | 28
CN(C)C(=O)c1ccc(-c2ccc(Cl)s2)c(COc2ccc(-c3nc4cc(C(=O)O)ccc4n3C3CCCCC3)cc2)c1 [Example 362, 2-{4-[2-(5-chlorothiophen-2-yl)-5-(dimethylcarbamoyl)benzyloxy]-phenyl}-1-cyclohexylbenzimidazole-5-carboxylic acid hydrochloride] | 20
Cc1cnc(-c2ccc(Br)c(COc3ccc(-c4nc5cc(C(=O)O)ccc5n4C4CCCCC4)cc3)c2)o1 [Example 363, 2-{4-[2-bromo-5-(5-methyloxazol-2-yl)benzyloxy]phenyl}-1-cyclohexylbenzimidazole-5-carboxylic acid hydrochloride] | 110
Cc1cnc(-c2ccc(Br)c(COc3ccc(-c4nc5cc(C(=O)O)ccc5n4C4CCCCC4)cc3)c2)s1 [Example 364, 2-{4-[2-bromo-5-(5-methylthiazol-2-yl)benzyloxy]phenyl}-1-cyclohexylbenzimidazole-5-carboxylic acid hydrochloride] | 120
Cc1cnc(-c2ccc(-c3ccc(Cl)cc3)c(COc3ccc(-c4nc5cc(C(=O)O)ccc5n4C4CCCCC4)cc3)c2)o1 [Example 365, 2-{4-[2-(4-chlorophenyl)-5-(5-methyloxazol-2-yl)benzyloxy]-phenyl}-1-cyclohexylbenzimidazole-5-carboxylic acid hydrochloride] | 20
Cc1cnc(-c2ccc(-c3ccc(Cl)cc3)c(COc3ccc(-c4nc5cc(C(=O)O)ccc5n4C4CCCCC4)cc3)c2)s1 [Example 366, 2-{4-[2-(4-chlorophenyl)-5-(5-methylthiazol-2-yl)benzyloxy]-phenyl}-1-cyclohexylbenzimidazole-5-carboxylic acid hydrochloride] | 24

— patent US20040082635A1, “Fused cyclic compounds and medicinal use thereof” (priority 2001, published 2004)
